Among the data in ChEMBL document CHEMBL1152076, “Alteration of Na+ permeability in human erythrocytes as studied by 23Na-NMR and inhibition of the kidney Na+,K+-ATPase activities with saponins: Interaction of Gleditsia saponins with human erythrocyte membranes” (Bioorg Med Chem Lett, 1995) are IC50 values, retold here.

The assay addresses Sodium/potassium-transporting ATPase (Rattus norvegicus). The assay is described as follows: Inhibitory activity against rat kidney Na+/K+ ATPase was determined by fiske subbarow method.

The molecule `C=C[C@@](C)(O)CC/C=C(\C)C(=O)OC1C(COCCCC2OC(CCCOOC(=O)C34CCC(C)(C)CC3C3=CCC5[C@@]6(C)CCC(OC7OC(CCOCCC8OCC(O)C(O)C8OC8OCC(O)C(O)C8O)C(O)C(O)C7O)C(C)(C)C6CC[C@@]5(C)[C@]3(C)C[C@H]4O)C(OCC3OC(C)C(OCCCCCCCCC4OCC(O)C(OC5OCC(O)C(O)C5O)C4O)C(O)C3O)C(O)C2O)OC(C)C(O)C1OC(=O)/C(=C/CC[C@](C)(O)C=C)CO` (stereo partly specified) registered an IC50 of 400 µM.
